Numbers after ± are expanded uncertainties.
Experiments:
[1] = for Triple point temperature: Crystal 2, DSC
[2] = Molar enthalpy of transition or fusion; conditions: DSC
[3] = xn = mol fraction of the nth substance listed; conditions: 100 kPa, Liquid, x2 = 0; for viscosity: Falling or rolling sphere viscometry; for mass density: Vibrating tube method

SMILES | Normal melting temperature ([1]; Crystal 1, DTA) | viscosity ([3]; 298.15 K) | viscosity ([3]; 303.15 K) | viscosity ([3]; 308.15 K) | viscosity ([3]; 313.15 K) | viscosity ([3]; 318.15 K) | mass density ([3]; 318.15 K) | viscosity ([3]; 323.15 K) | mass density ([3]; 323.15 K) | viscosity ([3]; 328.15 K) | mass density ([3]; 328.15 K) | viscosity ([3]; 333.15 K) | mass density ([3]; 333.15 K) | viscosity ([3]; 338.15 K) | mass density ([3]; 338.15 K) | viscosity ([3]; 343.15 K) | mass density ([3]; 343.15 K) | viscosity ([3]; 348.15 K) | mass density ([3]; 348.15 K) | other results
CCCC[n+]1ccccc1.[Br-] [1-butylpyridinium bromide] | 103.68 ± 0.7 °C |  |  |  |  |  |  |  |  |  |  |  |  |  |  |  |  |  |  | Molar enthalpy of transition or fusion ([2]; Crystal 1): 4.71 ± 0.359 kcal/mol
CCCC[N+]1(C)CCCCC1.[Br-] [N-butyl-N-methylpiperidinium bromide] | 240.67 ± 0.7 °C |  |  |  |  |  |  |  |  |  |  |  |  |  |  |  |  |  |  | Triple point temperature [1]: 339.53 ± 0.93 K; Molar enthalpy of transition or fusion ([2]; Crystal 2): 0.0153 kcal/mol
CC[N+]1(C)CCCCC1.[Br-] [N-ethyl-N-methylpiperidinium bromide] | 109.24 ± 0.7 °C |  |  |  |  |  |  |  |  |  |  |  |  |  |  |  |  |  |  | Molar enthalpy of transition or fusion ([2]; Crystal 1): 3.94 ± 0.335 kcal/mol
CCCC[N+](CC)(CC)CC.[Br-] [butyltriethyl ammonium bromide] | 216.87 ± 0.7 °C |  |  |  |  |  |  |  |  |  |  |  |  |  |  |  |  |  |  | Normal melting temperature ([1]; Crystal 1, visual observation): 217.0 ± 0.5 °C; Triple point temperature [1]: 444.65 ± 0.93 K; Molar enthalpy of transition or fusion ([2]; Crystal 2): 2.68 ± 0.382 kcal/mol
O [water] |  |  |  |  |  |  |  |  |  |  |  |  |  |  |  |  |  |  |  | Normal melting temperature ([1]; Crystal, visual observation): 0.1 ± 0.3 °C
O [water] + CCCC[N+]1(C)CCCCC1.[Br-] |  | 0.89 ± 0.054 mPa·s | 0.797 ± 0.048 mPa·s | 0.719 ± 0.043 mPa·s | 0.653 ± 0.039 mPa·s | 0.596 ± 0.036 mPa·s | 990.1 ± 1 kg/m3 | 0.547 ± 0.033 mPa·s | 987.9 ± 1 kg/m3 | 0.504 ± 0.03 mPa·s | 985.6 ± 1 kg/m3 | 0.466 ± 0.028 mPa·s | 983.2 ± 1 kg/m3 | 0.433 ± 0.026 mPa·s | 980.3 ± 1 kg/m3 | 0.404 ± 0.024 mPa·s | 978.1 ± 1 kg/m3 | 0.378 ± 0.023 mPa·s | 974.8 ± 1 kg/m3 | 
O [water] + CCCC[N+](CC)(CC)CC.[Br-] |  | 0.89 ± 0.054 mPa·s | 0.797 ± 0.048 mPa·s | 0.719 ± 0.043 mPa·s | 0.653 ± 0.039 mPa·s | 0.596 ± 0.036 mPa·s | 990.1 ± 1 kg/m3 | 0.547 ± 0.033 mPa·s | 987.9 ± 1 kg/m3 | 0.504 ± 0.03 mPa·s | 985.6 ± 1 kg/m3 | 0.466 ± 0.028 mPa·s | 983.2 ± 1 kg/m3 | 0.433 ± 0.026 mPa·s | 980.3 ± 1 kg/m3 | 0.404 ± 0.024 mPa·s | 978.1 ± 1 kg/m3 | 0.378 ± 0.023 mPa·s | 974.8 ± 1 kg/m3 | 
O [water] + CCCC[n+]1ccccc1.[Br-] |  | 0.89 ± 0.054 mPa·s | 0.797 ± 0.048 mPa·s | 0.719 ± 0.043 mPa·s | 0.653 ± 0.039 mPa·s | 0.596 ± 0.036 mPa·s | 990.1 ± 1 kg/m3 | 0.547 ± 0.033 mPa·s | 987.9 ± 1 kg/m3 | 0.504 ± 0.03 mPa·s | 985.6 ± 1 kg/m3 | 0.466 ± 0.028 mPa·s | 983.2 ± 1 kg/m3 | 0.433 ± 0.026 mPa·s | 980.3 ± 1 kg/m3 | 0.404 ± 0.024 mPa·s | 978.1 ± 1 kg/m3 | 0.378 ± 0.023 mPa·s | 974.8 ± 1 kg/m3 | 
O [water] + CC[N+]1(C)CCCCC1.[Br-] |  | 0.89 ± 0.054 mPa·s | 0.797 ± 0.048 mPa·s | 0.719 ± 0.043 mPa·s | 0.653 ± 0.039 mPa·s | 0.596 ± 0.036 mPa·s | 990.1 ± 1 kg/m3 | 0.547 ± 0.033 mPa·s | 987.9 ± 1 kg/m3 | 0.504 ± 0.03 mPa·s | 985.6 ± 1 kg/m3 | 0.466 ± 0.028 mPa·s | 983.2 ± 1 kg/m3 | 0.433 ± 0.026 mPa·s | 980.3 ± 1 kg/m3 | 0.404 ± 0.024 mPa·s | 978.1 ± 1 kg/m3 | 0.378 ± 0.023 mPa·s | 974.8 ± 1 kg/m3 | 
